In US10287301B2 (Achillion Pharmaceuticals, Inc., priority 2015, dated 2019):
Where two headings read alike, the source gives them in different places.

How the values were obtained:
[1] = tested on: complement alternative pathway (CAP), hemolysis of rabbit erythrocytes (RE); experiment: Combination therapy: hemolysis assay of two compounds; type: cell-based, human; details: combination with Complement Factor D inhibitor ("1"); 95% confidence limits; means ± standard deviations from two or three independent experiments
Procedure: The combinatorial efficacy of two compounds on the complement alternative pathway (CAP) was assessed by determining the effect of two compounds mixed together at various concentrations with Normal Human Serum (NHS) on the hemolysis of rabbit erythrocytes (RE) or the production of terminal complement complex (TCC). In both assays the two test compounds were prepared individually in seven-point dilution series, with an eighth sample for each containing solvent alone, and each of the 64 possible combinations was tested in duplicate or triplicate wells.
In the hemolysis assay, NHS (Complement Technology) diluted to 10% in GVB^0 Buffer (0.1% gelatin, 5 mM Veronal, 145 mM NaCl, 0.025% NaN3, pH 7.3, Complement Technology) plus 10 mM Mg-EGTA was incubated with the compounds at various concentrations for 15 minutes at 37° C. RE (Complement Technology) freshly suspended in GVB^0 plus 10 mM Mg-EGTA was added to a final concentration of 1×10^8 cells/mL and reactions were incubated for 30 minutes at 37° C. Positive control reactions consist of GVB^0 plus Mg-EGTA with NHS and RE but without test compounds; negative control reactions consist of GVB^0 plus Mg-EGTA with RE only. Samples were centrifuged at 2000 g for 3 minutes and supernatants collected. Absorbance at 405 nm (A405) was recorded using a microplate spectrophotometer.
Combinatorial effects in both assays were analyzed using the three-dimensional surface-graphing method of Prichard, M. N. and C. Shipman, Jr., Antiviral Research 1990, 14: 181-205, wherein the X-axis and Y-axis indicate test compound concentrations and the Z-axis indicates the difference between measured inhibition and a theoretically determined additive inhibition. For an additive combinatorial relationship the surface graph will resemble a horizontal plane of zero height, whereas positive surface peaks indicate greater inhibition than expected and therefore synergy, and negative surface peaks indicate less inhibition than expected and therefore antagonism.
Synergy and antagonism volumes are the summed volumes of peaks respectively above and below the Z=0 plane on the surface graph. Volumes are determined using 95% confidence limits to assure significance. Compounds are considered additive for volumes between −25 and 25. Compounds are considered slightly synergistic for volumes between 25 and 50, moderately synergistic for volumes between 50 and 100, and strongly synergistic for volumes greater than 100. Compounds are considered slightly antagonistic for volumes between −25 and −50, moderately antagonistic for volumes between −50 and −100, and strongly antagonistic for volumes less than −100. Results are presented as means±standard deviations from two or three independent experiments.

Human Factor D = Human Factor D (Homo sapiens (Human), UniProt P00746); experiment: Human Factor D Assay; type: biochemical; details: read-out: IC50
In short: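 Factor D (from human serum) 80 nM final + cpd, 5 min RT, 50 mM Tris/1M NaCl pH 7.5; add Z-L-Lys-SBzl 100 μM and DTNB 100 μM final. IC50 by nonlinear fit of rates vs [cpd].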

[2] = Human Factor D 80 nM, substrate Z-L-Lys-SBzl

Human Factor D, sequence (P00746 26-253): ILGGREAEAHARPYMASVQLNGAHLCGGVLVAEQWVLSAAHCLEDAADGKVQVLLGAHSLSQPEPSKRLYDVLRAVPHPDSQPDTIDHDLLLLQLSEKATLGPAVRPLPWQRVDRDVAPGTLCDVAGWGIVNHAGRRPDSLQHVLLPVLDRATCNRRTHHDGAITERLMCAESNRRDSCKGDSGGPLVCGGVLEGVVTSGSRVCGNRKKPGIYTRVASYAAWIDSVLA

Row | Structure (SMILES) | Antagonism Volume [1] | Synergy Volume [1] | other results
1 | N=C(N)c1ccc2cc(OC(=O)c3ccc(N=C(N)N)cc3)ccc2c1 [FUT-175] | −59 ± 11 μM^2 · % inhibition | 95 ± 37 μM^2 · % inhibition | 
2 | CCN[C@H](CC(=O)N1CCN(c2nc(N)c3cc(OC)c(OC)c(F)c3n2)CC1)c1ccc(F)cc1 [Complement Factor B inhibitor] | −18 ± 10 μM^2 · % inhibition | 157 ± 99 μM^2 · % inhibition | 
3 | CC[C@H](C)[C@H](N)C(=O)N[C@H]1CSSC[C@@H](C(=O)N[C@H](C(N)=O)[C@@H](C)O)NC(=O)[C@H](CCCN=C(N)N)NC(=O)[C@H](Cc2cnc[nH]2)NC(=O)[C@H](Cc2cnc[nH]2)NC(=O)CNC(=O)[C@H](Cc2c[nH]c3ccccc23)NC(=O)[C@H](CC(=O)O)NC(=O)[C@H](CCC(N)=O)NC(=O)[C@H](C(C)C)NC(=O)[C@H](C(C)C)NC1=O [Compstatin] | −17 ± 15 μM^2 · % inhibition | 244 ± 104 μM^2 · % inhibition | 
4 | CC(=O)c1nn(CC(=O)N2CC[C@@H](O)[C@H]2C(=O)Nc2cccc(Br)n2)c2ccc(-c3cnc(C)nc3)cc12 [Compound 315, (2S,3R)-1-(2-(3-acetyl-5-(2-methylpyrimidin-5-yl)-1H-indazol-1-yl)acetyl)-N-(6-bromopyridin-2-yl)-3-hydroxypyrrolidine-2-carboxamide] |  |  | IC50 (Human Factor D; Human Factor D assay of Example 8, Table 2): < 1 µM
5 | CC(=O)c1cn(CC(=O)N2C[C@H](F)C[C@H]2C(=O)Nc2nc(-c3cccc(Cl)c3)ns2)c2ccc(-c3ccnnc3)cc12 [Compound 147, (2S,4R)-1-(2-(3-acetyl-5-(pyridazin-4-yl)-1H-indol-1-yl)acetyl)-N-(3-(3-chlorophenyl)-1,2,4-thiadiazol-5-yl)-4-fluoropyrrolidine-2-carboxamide] |  |  | IC50 (Human Factor D; [2]): > 10 µM
6 | CC(=O)c1nn(CC(=O)N2C[C@H](F)C[C@H]2C(=O)Nc2cccc(Br)n2)c2ccc(-c3cnc(Cl)nc3)cc12 [Compound 651, (2S,4R)-1-(2-(3-Acetyl-5-(2-chloropyrimidin-5-yl)-1H-indazol-1-yl)acetyl)-N-(6-bromopyridin-2-yl)-4-fluoropyrrolidine-2-carboxamide] |  |  | IC50 (Human Factor D; Human Factor D, Table 3): > 10 µM
7 | CC(=O)c1cn(CC(=O)N2C[C@H](F)C[C@H]2C(=O)NC2CCCc3nc(-c4ccc(F)cc4)sc32)c2ccc(-c3ccnnc3)cc12 (stereo partly drawn) [Compound 106, (2S,4R)-1-(2-(3-acetyl-5-(pyridazin-4-yl)-1H-indol-1-yl)acetyl)-4-fluoro-N-(2-(4-fluorophenyl)-4,5,6,7-tetrahydrobenzo[d]thiazol-7-yl)pyrrolidine-2-carboxamide] |  |  | IC50 (Human Factor D; [2]): > 10 µM
